Reference: PMC5590070, “Anti-Inflammatory, Antioxidant, Antibiotic, and Cytotoxic Activities of Tanacetum vulgare L. Essential Oil and Its Constituents” (Medicines, 2017)
Converted amounts (≈) assume the structure as drawn. Read-outs that look alike come from different tables or passages of the source.

How the values were obtained:
[1] = tested on: NO production in murine macrophage RAW 264.7 cells; assay: Inhibition of NO production in LPS-stimulated RAW 264.7 macrophages (Griess reaction); format: cell-based; settings: for IC50 / Anti-Inflammation IC50: inhibition of NO production, RAW 264.7, 100 ng·mL^−1 LPS, 24 h; for IC50: read-out: Anti-Inflammation IC50
Protocol: We evaluated the inhibition NO production by T. vulgare essential oil and compounds as described by Legault et al.. Control L-NAME was used as positive control. Murine macrophage RAW 264.7 cells were incubated with essential oil or dissolved compounds in DMSO and then stimulated with 100 ng·mL^−1 LPS and incubated at 37 °C. After 24 h, we collected the cell-free supernatants and immediately determined the NO concentration using the Griess reaction. We read the absorbance at 540 nm using an automated Varioskan Ascent plate reader (Labsystems, Milford, MA, USA), and quantified the presence of nitrite by comparing with a NaNO2 standard curve.

[2] = tested on: human skin fibroblasts WS1; assay: Cell-based antioxidant DCFH-DA assay (tert-butylhydroperoxide-induced DCFH oxidation); settings: inhibition of DCFH oxidation induced by tert-butylhydroperoxide, WS1 cells; for IC50: Homo sapiens
Protocol: Antioxidant activity was evaluated using the DCFH-DA assay as described by Girard-Lalancette et al.. To assess antioxidant activity, we incubated the human skin fibroblasts WS1 for 1 h with a growing concentration of essential oil or dissolved compounds in DMSO. We then added 100 µL of 200 µM tert-butylhydroperoxide and immediately measured fluorescence as well as again after 90 min later. Measurements were performed on an automated plate reader (Fluoroskan Ascent FL, Labsystems, Milford, MA, USA) using an excitation wavelength of 485 nm and an emission wavelength of 530 nm.

[3] = tested on: Escherichia coli (ATCC 25922); assay: Antibacterial hydrophobic assay (resazurin); format: cell-based
Source text: (§1) We tested the antibacterial activities of T. vulgare essential oil and compounds against gram-negative Escherichia coli (ATCC bacteria 25922) and gram-positive Staphylococcus aureus (ATCC bacteria 25923) using the antibacterial hydrophobic assay as described by Côté et al.. This new method was developed and used in this work as classical methods including disc diffusion and microdilution assays are sometimes inefficient for testing a matrix or compounds of a hydrophobic nature. Briefly, after microorganisms passed 16–18 h at 37 °C in a nutrient broth base (Difco), we transferred 20 µL methanol containing growing concentrations of essential oil and compounds (3.1 to 200 µg·mL^−1) onto nutrient agar of 96-well plates. We then added bacterial strains having a concentration of 5 × 10^3 colony forming units (CFU) per mL of nutrient broth. […] The blank consisted of culture medium only and was subtracted from all subsequent measurements of every other well. The 96-well plates were then incubated at 37 °C for 5 h to foster bacterial growth. We then added 100 µL of resazurin sodium salt solution having a concentration of 50 µg·mL^−1 (Sigma R-2127, St-Louis, MO, USA) to each well.

[4] = tested on: Staphylococcus aureus (ATCC 25923); assay: Antibacterial hydrophobic assay (resazurin); format: cell-based
Source text: as §1

[5] = Cytotoxic assay, resazurin reduction test, 48 h; format: cell-based, human; settings: human
Protocol: (§2) We plated in 96-well microplates—each containing a 100 µL culture medium—exponentially growing cells of human skin fibroblasts WS1, human HaCaT keratinocytes, human lung carcinoma A-549, and human colon adenocarcinoma DLD-1 at a density of 5 × 10^3 cells per well (Costar, Corning Inc., Lowell, MA, USA). The cells were allowed to adhere for 16 h before treatment. We then treated cells with T. vulgare essential oil or dissolved compounds in DMSO. The final concentration of DMSO in the culture medium was 0.5% (v/v) to avoid solvent toxicity. After 48 h, we assessed the cytotoxicity using the resazurin reduction test. Fluorescence was measured on an automated Fluoroskan Ascent FL^TM plate reader (Labsystems, Milford, MA, USA) using an excitation wavelength of 530 nm and an emission wavelength of 590 nm.

in vitro = settings: human
Protocol: as §2
We assessed the cytotoxic activity of T. vulgare essential oil and its main compounds against human lung carcinoma A-549, colon adenocarcinoma DLD-1, human keratinocytes HaCaT, and healthy WS1 cell lines.

[6] = tested on: human colon adenocarcinoma DLD-1; assay: Cytotoxic assay, resazurin reduction test, 48 h; format: cell-based; settings: DLD-1, 48 h
Protocol: as §2

[7] = tested on: human lung carcinoma A-549; assay: Cytotoxic assay, resazurin reduction test, 48 h; format: cell-based; settings: A-549, 48 h
Protocol: as §2

[8] = tested on: human skin fibroblasts WS1; assay: Cytotoxic assay, resazurin reduction test, 48 h; format: cell-based; settings: WS1, 48 h
Protocol: as §2

[9] = Escherichia coli, ATCC25922, E. coli, 50% inhibition of bacterial growth
[10] = Staphylococcus aureus, ATCC25923, S. aureus, 50% inhibition of bacterial growth
[11] = A-549 lung carcinoma cells, A-549, 48 h, read-out: Cytotoxicity IC50 A549
[12] = DLD-1 colon adenocarcinoma cells, DLD-1, 48 h, read-out: Cytotoxicity IC50 DLD1
[13] = WS1 skin fibroblasts, WS1, 48 h, read-out: Cytotoxicity IC50 WS1
[14] = E. coli, 50% inhibition of bacterial growth
[15] = S. aureus, 50% inhibition of bacterial growth
[16] = Escherichia coli, ATCC25922, read-out: Antibacterial IC50 E. coli
[17] = Staphylococcus aureus, ATCC25923, read-out: Antibacterial IC50 S. aureus
[18] = A-549, 48 h, read-out: Cytotoxicity IC50 A549
[19] = DLD-1, 48 h, read-out: Cytotoxicity IC50 DLD1
[20] = WS1, 48 h, read-out: Cytotoxicity IC50 WS1

SMILES	IC50 ([1]; Mus musculus, RAW264.7)	IC50 [2]	IC50 [3, 9]	IC50 [4, 10]	IC50 at 48 h [5, 11]	IC50 at 48 h [5, 12]	IC50 at 48 h [5, 13]	IC50 at 48 h (in vitro)	further results
CC12CCC(CC1)C(C)(C)O2 [1,8-Cineole]	> 200 µg/mL	> 200 µg/mL	> 200 µg/mL	> 200 µg/mL	> 200 µg/mL	> 200 µg/mL	> 200 µg/mL	> 200 µg/mL	
CC1(C)C2CCC1(C)C(O)C2 (stereo not drawn) [Borneol]	> 200 µg/mL	> 200 µg/mL	> 200 µg/mL	> 200 µg/mL	> 200 µg/mL	> 200 µg/mL	> 200 µg/mL	> 200 µg/mL	
CC(=O)OC1CC2CCC1(C)C2(C)C (stereo not drawn) [Bornyl acetate]	> 200 µg/mL	> 200 µg/mL	> 200 µg/mL	> 200 µg/mL	> 200 µg/mL	> 200 µg/mL	> 200 µg/mL		
C=C1C2CCC(C2)C1(C)C (stereo not drawn) [Camphene]	> 200 µg/mL	> 200 µg/mL	> 200 µg/mL	> 200 µg/mL	72 ± 2 µg/mL	75 ± 5 µg/mL	49 ± 1 µg/mL	28 to 112 µg/mL (≈ 206 to 822 µM)	
CC12CCC(CC1=O)C2(C)C (stereo not drawn) [Camphor]	> 200 µg/mL	> 200 µg/mL	22 to 26 µg/mL (≈ 145 to 171 µM)	22 to 26 µg/mL (≈ 145 to 171 µM)	> 200 µg/mL	> 200 µg/mL	> 200 µg/mL	> 200 µg/mL	Antibacterial IC50 E. coli [3, 14]: 22 ± 1 µg/mL; Antibacterial IC50 S. aureus [4, 15]: 26 ± 3 µg/mL
C=C1CC[C@H]2O[C@]2(C)CC[C@@H]2[C@@H]1CC2(C)C [Caryophyllene oxide]									Anti-Inflammation IC50 [1]: 183 ± 15 µg/mL; Antioxidant IC50 [2]: 6.2 ± 0.5 µg/mL; Antibacterial IC50 E. coli [3, 14]: 97 ± 2 µg/mL; Antibacterial IC50 S. aureus [4, 15]: 10.4 ± 0.9 µg/mL; Cytotoxicity IC50 DLD1 [6]: 43 ± 3 µg/mL; Cytotoxicity IC50 A549 [7]: 36 ± 2 µg/mL; Cytotoxicity IC50 WS1 [8]: 50 ± 4 µg/mL
O=C(N[C@H](CO)[C@H](O)c1ccc([N+](=O)[O-])cc1)C(Cl)Cl [Chloramphenicol, reference compound]									MIC90 ([3]; Escherichia coli, ATCC25922, E. coli, antibiotic positive control): 0.9 µg/mL (≈ 2.79 µM); MIC90 ([4]; Staphylococcus aureus, ATCC25923, S. aureus, antibiotic positive control): 0.73 µg/mL (≈ 2.26 µM)
COc1cc([C@@H]2c3cc4c(cc3[C@@H](O[C@@H]3O[C@@H]5CO[C@@H](C)O[C@H]5[C@H](O)[C@H]3O)[C@H]3COC(=O)[C@H]23)OCO4)cc(OC)c1O [Etoposide, reference compound]									IC50 at 48 h ([5]; A-549 lung carcinoma cells, A-549, cytotoxic positive control, read-out: Cytotoxicity IC50 A-549): 2.3 µM; IC50 at 48 h ([5]; DLD-1 colon adenocarcinoma cells, DLD-1, cytotoxic positive control, read-out: Cytotoxicity IC50 DLD-1): 2.8 µM; IC50 at 48 h ([5]; WS1 skin fibroblasts, WS1, cytotoxic positive control, read-out: Cytotoxicity IC50 WS1): 19 µM
COC(=O)[C@@H](N)CCCNC(N)=N[N+](=O)[O-] [L-NAME, reference compound]									inhibition at 1000 µM ([1]; Mus musculus, RAW264.7, 1 mM, positive control): 64.1%
C=C(C)[C@H]1CC=C(C)CC1 [Limonene]									Anti-Inflammation IC50 [1]: >200 µg/mL; Antibacterial IC50 E. coli [3, 14]: >200 µg/mL; Antibacterial IC50 S. aureus [4, 15]: >200 µg/mL; Cytotoxicity IC50 DLD1 [6]: 31 ± 3 µg/mL; Cytotoxicity IC50 A549 [7]: 71 ± 6 µg/mL
O=c1c(O)c(-c2ccc(O)c(O)c2)oc2cc(O)cc(O)c12 [Quercetin, reference compound]		0.043 µg/mL (≈ 0.142 µM)							
CC1=CCC(O)(C(C)C)CC1 (stereo not drawn) [Terpinen-4-ol]	> 200 µg/mL	> 200 µg/mL	> 200 µg/mL	> 200 µg/mL	> 200 µg/mL	> 200 µg/mL	> 200 µg/mL		
CC1=CCC(=C(C)C)CC1 [Terpinolene]	> 200 µg/mL								IC50 [3, 16]: > 200 µg/mL; IC50 [4, 17]: > 200 µg/mL; IC50 at 48 h [5, 18]: > 200 µg/mL; IC50 at 48 h [5, 19]: > 200 µg/mL; IC50 at 48 h [5, 20]: > 200 µg/mL
Cc1ccc(C(C)C)cc1 [p-Cymene]	> 200 µg/mL	> 200 µg/mL	> 200 µg/mL	> 200 µg/mL	> 200 µg/mL	> 200 µg/mL	> 200 µg/mL		
CC1=CCC2CC1C2(C)C (stereo not drawn) [α-Pinene]	30 ± 4 µg/mL (≈ 220 µM)	3.4 ± 0.2 µg/mL (≈ 25 µM)			35 ± 6 µg/mL	58 ± 18 µg/mL	57 ± 4 µg/mL	28 to 112 µg/mL (≈ 206 to 822 µM)	
CC1=CC=C(C(C)C)CC1 [α-Terpinene]	46 ± 4 µg/mL (≈ 338 µM)	> 200 µg/mL						28 to 112 µg/mL (≈ 206 to 822 µM)	IC50 [3, 16]: > 200 µg/mL; IC50 [4, 17]: > 200 µg/mL; IC50 at 48 h [5, 18]: 63 ± 10 µg/mL; IC50 at 48 h [5, 19]: 73 ± 7 µg/mL; IC50 at 48 h [5, 20]: 53 ± 12 µg/mL
C=C1CC/C=C(\C)CC[C@@H]2[C@@H]1CC2(C)C [β-Caryophyllene]	> 200 µg/mL	> 200 µg/mL	> 200 µg/mL	> 200 µg/mL	55 ± 5 µg/mL	97 ± 6 µg/mL	59 ± 7 µg/mL	28 to 112 µg/mL (≈ 137 to 548 µM)	
C=C1CCC2CC1C2(C)C (stereo not drawn) [β-Pinene]	46 ± 9 µg/mL (≈ 338 µM)	> 200 µg/mL	> 200 µg/mL	> 200 µg/mL				28 to 112 µg/mL (≈ 206 to 822 µM)	IC50 at 48 h [5, 18]: 43 ± 4 µg/mL; IC50 at 48 h [5, 19]: 49.4 ± 0.3 µg/mL; IC50 at 48 h [5, 20]: 29 ± 14 µg/mL
CC1=CCC(C(C)C)=CC1 [γ-Terpinene]	> 200 µg/mL							28 to 112 µg/mL (≈ 206 to 822 µM)	IC50 [3, 16]: > 200 µg/mL; IC50 [4, 17]: 50 ± 9 µg/mL (≈ 367 µM); IC50 at 48 h [5, 18]: 112 ± 15 µg/mL; IC50 at 48 h [5, 19]: > 200 µg/mL; IC50 at 48 h [5, 20]: 82 ± 15 µg/mL
